Assay results published in ChEMBL document CHEMBL3792276, “Design and synthesis of diamide-coupled benzophenones as potential anticancer agents” (Eur J Med Chem, 2016).
Calls of active or inactive are those of the source. The rule behind the calls is not given here.

How the values were obtained:
A549 [1] = assay: Cytotoxicity against human A549 cells after 48 hrs by trypan blue assay; type: functional, cell-based
MCF7 [2] = assay: Cytotoxicity against human MCF7 cells after 48 hrs by MTT assay; type: functional, cell-based
A549 [3] = assay: Cytotoxicity against human A549 cells after 48 hrs by LDH leak assay; type: functional, cell-based
DLA [4] = assay: (§1) Cytotoxicity against mouse DLA cells after 48 hrs by trypan blue assay; type: functional, cell-based
MCF7 [5] = assay: Cytotoxicity against human MCF7 cells after 48 hrs by trypan blue assay; type: functional, cell-based
A549 [6] = assay: Cytotoxicity against human A549 cells after 48 hrs by MTT assay; type: functional, cell-based
DLA [7] = assay: (§2) Cytotoxicity against mouse DLA cells after 48 hrs by LDH leak assay; type: functional, cell-based
DLA [8] = assay: (§3) Cytotoxicity against mouse DLA cells after 48 hrs by MTT assay; type: functional, cell-based
MCF7 [9] = assay: Cytotoxicity against human MCF7 cells after 48 hrs by LDH leak assay; type: functional, cell-based
Mus musculus [10] = assay: Decrease in cell count Swiss albino mouse allografted with mouse DLA cells at 75 mg/kg, ip administered as 3 doses on alternative days post 4 days of tumor implantation; type: functional, organism-based
[11] = as §1; type: functional, cell-based
[12] = Antitumor activity against mouse DLA cells allografted in Swiss albino mouse assessed as induction of tumor regression at 75 mg/kg, ip administered as 3 doses on alternative days post 4 days of tumor implantation; type: functional
Chorioallantoic membrane = assay: Antiangiogenic activity in chicken chorioallantoic membrane assessed as inhibition of rVEGF-induced neovascularization measured upto 12 days; type: functional; settings: Gallus gallus
[13] = Antitumor activity against mouse DLA cells allografted in Swiss albino mouse assessed as inhibition of tumor growth at 75 mg/kg, ip administered as 3 doses on alternative days post 4 days of tumor implantation measured after final dose of drug challenge; type: functional; settings: 96 h
Mus musculus [14] = assay: Decrease in ascites fluid secretion in Swiss albino mouse allografted with mouse DLA cells at 75 mg/kg, ip administered as 3 doses on alternative days post 4 days of tumor implantation; type: functional, organism-based
[15] = as §2; type: functional, cell-based
Mus musculus [16] = species on record: Mus musculus; assay: Antiangiogenic activity against Swiss albino mouse allografted with mouse DLA cells assessed as decrease in peritoneal angiogenesis measured as […]; type: functional
[17] = as §3; type: functional, cell-based
[18] = Antitumor activity against mouse DLA cells allografted in Swiss mouse assessed as increase in animal survival time at 75 mg/kg, ip administered as 3 doses on alternative days post 4 days of tumor implantation; type: functional

SMILES: Cc1cc(C(=O)c2ccccc2)c(C)cc1OCC(=O)Nc1ccccc1NC(=O)COc1cc(C)c(C(=O)c2ccccc2)cc1C
- Activity (A549 [1]): inactive
- Activity (MCF7 [2]): inactive
- Activity (A549 [3]): inactive
- Activity (DLA [4]): inactive
- Activity (MCF7 [5]): inactive
- Activity (A549 [6]): inactive
- Activity (DLA [7]): inactive
- Activity (DLA [8]): inactive
- Activity (MCF7 [9]): inactive

SMILES: O=c1[nH]cc(F)c(=O)[nH]1
- Activity (A549 [1]): inactive
- Activity (MCF7 [2]): inactive
- Activity (A549 [3]): inactive
- Activity (DLA [4]): inactive
- Activity (MCF7 [5]): inactive
- Activity (A549 [6]): inactive
- Activity (DLA [7]): inactive
- Activity (DLA [8]): inactive
- Activity (MCF7 [9]): inactive

SMILES: Cc1cc(C(=O)c2ccccc2)ccc1OCC(=O)Nc1ccccc1NC(=O)COc1cc(C)c(C(=O)c2ccccc2)cc1C
- Activity (A549 [1]): inactive
- Activity (MCF7 [2]): inactive
- Activity (A549 [3]): inactive
- Activity (DLA [4]): inactive
- Activity (MCF7 [5]): inactive
- Activity (A549 [6]): inactive
- Activity (DLA [7]): inactive
- Activity (DLA [8]): inactive
- Activity (MCF7 [9]): inactive

SMILES: Cc1cc(C(=O)c2ccccc2)ccc1OCC(=O)Nc1ccccc1NC(=O)COc1ccc(C(=O)c2ccc(Br)cc2)cc1C
- Activity (A549 [1]): inactive
- Activity (MCF7 [2]): inactive
- Activity (A549 [3]): inactive
- Activity (DLA [4]): inactive
- Activity (MCF7 [5]): inactive
- Activity (A549 [6]): inactive
- Activity (DLA [7]): inactive
- Activity (DLA [8]): inactive
- Activity (MCF7 [9]): inactive

SMILES: Cc1cc(C(=O)c2ccccc2)ccc1OCC(=O)Nc1ccccc1NC(=O)COc1ccc(C(=O)c2ccccc2C)cc1C
- Activity (A549 [1]): inactive
- Activity (MCF7 [2]): inactive
- Activity (A549 [3]): inactive
- Activity (DLA [4]): inactive
- Activity (MCF7 [5]): inactive
- Activity (A549 [6]): inactive
- Activity (DLA [7]): inactive
- Activity (DLA [8]): inactive
- Activity (MCF7 [9]): inactive

SMILES: Cc1cc(C(=O)c2ccccc2)ccc1OCC(=O)Nc1ccccc1NC(=O)COc1c(F)cc(C(=O)c2ccc(Cl)cc2)cc1Cl
- Activity (A549 [1]): inactive
- Activity (MCF7 [2]): inactive
- Activity (A549 [3]): inactive
- Activity (DLA [4]): inactive
- Activity (MCF7 [5]): inactive
- Activity (A549 [6]): inactive
- Activity (DLA [7]): inactive
- Activity (DLA [8]): inactive
- Activity (MCF7 [9]): inactive

SMILES: Cc1cc(C(=O)c2ccc(Br)cc2)ccc1OCC(=O)Nc1ccccc1NC(=O)COc1ccc(C(=O)c2ccccc2C)cc1C
- IC50 (A549 [1]; A549, 48 h): 20 µM
- inhibition (Mus musculus [10]): Active
- IC50 (MCF7 [2]; MCF7, 48 h): 23 µM
- IC50 (A549 [3]; A549, 48 h): 20 µM
- IC50 [11]: 23 µM
- fold change (FC) [12]: 2.5
- IC50 (MCF7 [5]; MCF7, 48 h): 23 µM
- inhibition (Chorioallantoic membrane): Active
- IC50 (A549 [6]; A549, 48 h): 20 µM
- inhibition in vivo at 75 mg/kg [13]: 80%
- inhibition (Mus musculus [14]): Active
- IC50 [15]: 23 µM
- inhibition (INH) (Mus musculus [16]): >50%
- IC50 [17]: 23 µM
- IC50 (MCF7 [9]; MCF7, 48 h): 23 µM
- MST [18]: 37 days

SMILES: Cc1ccc(C(=O)c2ccc(OCC(=O)Nc3ccccc3NC(=O)COc3ccc(C(=O)c4ccccc4)cc3C)c(C)c2)cc1
- Activity (A549 [1]): inactive
- Activity (MCF7 [2]): inactive
- Activity (A549 [3]): inactive
- Activity (DLA [4]): inactive
- Activity (MCF7 [5]): inactive
- Activity (A549 [6]): inactive
- Activity (DLA [7]): inactive
- Activity (DLA [8]): inactive
- Activity (MCF7 [9]): inactive

SMILES: Cc1cc(C(=O)c2ccc(Br)cc2)ccc1OCC(=O)Nc1ccccc1NC(=O)COc1cc(C)c(C(=O)c2ccccc2)cc1C
- Activity (A549 [1]): inactive
- Activity (MCF7 [2]): inactive
- Activity (A549 [3]): inactive
- Activity (DLA [4]): inactive
- Activity (MCF7 [5]): inactive
- Activity (A549 [6]): inactive
- Activity (DLA [7]): inactive
- Activity (DLA [8]): inactive
- Activity (MCF7 [9]): inactive

SMILES: Cc1cc(C(=O)c2ccc(Br)cc2)ccc1OCC(=O)Nc1ccccc1NC(=O)COc1c(F)cc(C(=O)c2ccc(Cl)cc2)cc1Cl
- Activity (A549 [1]): inactive
- Activity (MCF7 [2]): inactive
- Activity (A549 [3]): inactive
- Activity (DLA [4]): inactive
- Activity (MCF7 [5]): inactive
- Activity (A549 [6]): inactive
- Activity (DLA [7]): inactive
- Activity (DLA [8]): inactive
- Activity (MCF7 [9]): inactive

SMILES: Cc1ccc(C(=O)c2ccc(OCC(=O)Nc3ccccc3NC(=O)COc3ccc(C(=O)c4ccc(Br)cc4)cc3C)c(C)c2)cc1
- Activity (A549 [1]): inactive
- Activity (MCF7 [2]): inactive
- Activity (A549 [3]): inactive
- Activity (DLA [4]): inactive
- Activity (MCF7 [5]): inactive
- Activity (A549 [6]): inactive
- Activity (DLA [7]): inactive
- Activity (DLA [8]): inactive
- Activity (MCF7 [9]): inactive

SMILES: Cc1cc(C(=O)c2ccccc2)ccc1OCC(=O)Nc1ccccc1NC(=O)COc1ccc(C(=O)c2ccccc2)cc1C
- Activity (A549 [1]): inactive
- Activity (MCF7 [2]): inactive
- Activity (A549 [3]): inactive
- Activity (DLA [4]): inactive
- Activity (MCF7 [5]): inactive
- Activity (A549 [6]): inactive
- Activity (DLA [7]): inactive
- Activity (DLA [8]): inactive
- Activity (MCF7 [9]): inactive

SMILES: Cc1cc(C(=O)c2ccc(Br)cc2)ccc1OCC(=O)Nc1ccccc1NC(=O)COc1ccc(C(=O)c2ccc(Br)cc2)cc1C
- Activity (A549 [1]): inactive
- Activity (MCF7 [2]): inactive
- Activity (A549 [3]): inactive
- Activity (DLA [4]): inactive
- Activity (MCF7 [5]): inactive
- Activity (A549 [6]): inactive
- Activity (DLA [7]): inactive
- Activity (DLA [8]): inactive
- Activity (MCF7 [9]): inactive
